The subject of one series is eosinophils. Description: Eosinophil cytotoxicity by real-time impedance tracing (xCELLigence RTCA). The following applies: for average AUC (decrease in cell index): 30 μg/ml; for Average magnitude of largest AUC: AUC of normalized cell index, negative AUC = cell death; for normalized cell index tracings over time (peptide activity): after 24 hours; for cytotoxic effect on eosinophils as measured by AUC: 3 μg/ml. The series is classed as cell-based, IL-5 transgenic mice. From the text: IL-5 transgenic mice were euthanized and blood collected by cardiac puncture through the left ventricle. Red blood cells (RBCs) were lysed using a red blood cell lysis solution (Miltenyi Biotec, Auburn CA). Eosinophils were isolated by negative selection using biotin-conjugated antibodies (CD45R, Thy 1.2, F4/80) and magnetic beads, as previously described (see, Dy, A. B. C., et al., 2019 J Immunol 203: 1122-1130; Ledford, J. G., et al., 2012 PLoS One 7: e32436). Purity of each preparation was verified using standard morphometric analysis of cytocentrifuged slides stained with Easy III™ rapid differential staining kit (Azer Scientific, Morgantown Pa.) to be greater than 95%.
High throughput real-time monitoring of eosinophil cell death was assessed by measuring electrical impedance using the xCELLigence Real-Time Cell Analyzer (ACEA Biosciences, San Diego Calif.) as previously described (see, Dy, A. B. C., et al., 2019 J Immunol 203: 1122-1130; Flynn, A. N., et al., FASEB J 27: 1498-1510; Zeng, C., et al., Environ Res 164: 452-458). Using 96-well gold electrode coated plates (E-plates, ACEA Biosciences) incubated at 37° C. and 5% CO2, an initial background reading was obtained with media only. In a total volume of […] were seeded at 1×10^6 cells/well and allowed to settle for ˜5 hours. Test compounds were added at various concentrations (1, 3, 10 and 30 μg/ml) and changes in electrical impedance were measured over time. Impedance measurements were calculated and presented as normalized cell index (see, Flynn, A. N., et al., FASEB J 27: 1498-1510; Zeng, C., et al., Environ Res 164: 452-458), where a decrease in cell index corresponds to an increase in eosinophil cytotoxicity. Impedance tracings over time were derived from averages of 3-4 technical replicates. To quantify and compare cytotoxicity, the area under the curve (AUC) was calculated using cell index values. Half maximal effective concentration (EC50) values were generated using equivalent molar concentrations and their corresponding dose-response curves for each peptidomimetic.

Another series has as its system mouse model of asthma. Kind of series: HDM experimental allergen challenge, in vivo mouse model of asthma. Also noted: species or system mice. The conditions noted are these: pre-clinical mouse model of asthma; preliminary data. From the text:
FIG. 1A-C. Evaluation of SP-A-derived 10-mer native peptide in an in vivo mouse model of asthma. A) Schematic of HDM experimental allergen challenge. B) Newtonian resistance
(Rn) during methacholine challenge of wild-type mice 6 days after terminal HDM challenge. C) Total eosinophil counts in BAL (left panel) and mucin production (right panel) by PAS scoring. Unpaired t-test, *p<0.05, **p<0.01.

[1] abbreviates: Table 3 summary of lead peptidomimetics, eosinophils, RTCA, read-out: EC50.

The text below walks through data of US20230135877A1, “COMPOSITIONS AND METHODS FOR TREATING AND PREVENTING LUNG DISEASE” (Arizona Board of Regents on Behalf of the University of …, priority 2020, published 2023).

“Also recorded” adds a separate entry of the source. Read-outs that look alike come from different tables or passages of the source. Where a SMILES comes first, the peptide text is derived from it. Bridges are numbered along the chain shown (N, C = ends). Roman numbers before positions name the chains, in order. Where no end group is shown, it is not given here. [ ]: non-standard residue; d: D form. Nle = CCCC[C@H](N)C(=O)O

In the case of “Ac-SDGTPVNYTNWYRGEPAGRGKEQ-NH2 [Peptidomimetic 888]”, in the series with eosinophils, the EC50 was 35 nM.

“Ac-KEQCVEMYTD (N-terminus assumed) [10-mer peptide, KEQCVEMYTD, reference compound]” yielded an EC50 in the series on eosinophils of 16000 nM. Further, in the series on eosinophils (eosinophils, RTCA), the “average AUC (decrease in cell index)” value is -2.62, the “Average magnitude of largest AUC” value is recorded as −2.62, the “Concentration at which average AUC is largest” value (from here on “Concentration”) was found to be 24.00 µM and the “normalized cell index tracings over time (peptide activity)” value is recorded as “decline in peptide activity after 24 hours”. Further, the EC50 in the series on eosinophils (setting [1]) amounted to 16000 nM. Also, in the series on mouse model of asthma, the airway hyperresponsiveness result is given as “reduce”, the airway mucus production result is “reduce” and the eosinophilia entry was “reduce”.

In the case of “Ac-KEQCVEMYTD-NH2 [Peptidomimetic 856, Ac-KEQCVEMYTD-NH2]”, the EC50 with eosinophils is 8210 nM.

As for `CCCC[C@H](NC(=O)[C@H](CCC(=O)O)NC(=O)[C@@H](NC(=O)[C@H](CS)NC(=O)[C@H](CCC(N)=O)NC(=O)[C@H](CCC(=O)O)NC(=O)[C@H](CCCCN)NC(=O)CNC(=O)[C@@H](Cc1c[nH]c2ccccc12)NC(C)=O)C(C)C)C(=O)N[C@@H](Cc1ccc(O)cc1)C(=O)N[C@H](C(=O)N[C@@H](CC(=O)O)C(N)=O)[C@@H](C)O` [Peptidomimetic 894, Ac-wGKEQCVE-Nle-YTD-NH2] (Ac-[dW]GKEQCVE[Nle]YTD-NH2), the EC50 in the series on eosinophils is 12 nM. Further, in the series on eosinophils (eosinophils, RTCA), the “Average magnitude of largest AUC” value is given as −1.63; the “Concentration” value came out at 0.01 µM; the “magnitude of the calculated AUCs compared with full-length SP-A, 10-mer, 20-mer and several peptidomimetics” value is given as “much smaller”.

As to “Ac-WGKEQCVEMYTD-NH2 [Peptidomimetic 867, Ac-WGKEQCVEMYTD-NH2]”, the “cytotoxic effect on eosinophils as measured by AUC” value with eosinophils is reported as “most robust cytotoxic effect; also recorded: most comparable response to full-length SP-A”. Also, in the series with eosinophils (eosinophils, RTCA), the “Average magnitude of largest AUC” value is given as −9.06 and the “Concentration” value amounted to 1.96 µM. The EC50 in the series with eosinophils (setting [1]) was 950 nM.

“Ac-KEQAVEMYTD-NH2 [Peptidomimetic 884, Ac-KEQAVEMYTD-NH2]” gave an EC50 in the series with eosinophils of 10600 nM.

“Ac-KEQCVEMYTD-OH [Peptidomimetic 870, Ac-KEQCVEMYTD-acid]” displayed an EC50 in the series on eosinophils of 10800 nM.

As to “Full-length SP-A: Full-length surfactant protein A; served as the positive control for eosinophil cell death”, in the series on eosinophils (eosinophils, RTCA), the “average AUC (decrease in cell index)” value is given as −13.89, the “Average magnitude of largest AUC” value is −13.89, the “Concentration” value worked out at 0.86 µM and the eosinophil cell death entry is “induced eosinophil cell death in a dose-dependent manner”. For the same compound, the EC50 with eosinophils (eosinophils, RTCA, concentration range 1, 3, 10 and 30 μg/ml, read-out: EC50 (half maximal effective concentration, based on AUC at each dose)) was 158 nM.

In the series with eosinophils, `CCCC[C@H](NC(=O)[C@H](CCC(=O)O)NC(=O)[C@@H](NC(=O)[C@H](CS)NC(=O)[C@H](CCC(N)=O)NC(=O)[C@H](CCC(=O)O)NC(=O)[C@H](CCCCN)NC(=O)CNC(=O)[C@H](Cc1c[nH]c2ccccc12)NC(C)=O)C(C)C)C(=O)N[C@@H](Cc1ccc(O)cc1)C(=O)N[C@H](C(=O)N[C@@H](CC(=O)O)C(N)=O)[C@@H](C)O` [Peptidomimetic 892, Ac-WGKEQCVE-Nle-YTD-NH2] (Ac-WGKEQCVE[Nle]YTD-NH2) showed an EC50 of 8 nM. In addition, in the series with eosinophils (eosinophils, RTCA), the “Average magnitude of largest AUC” value is −1.07; the “Concentration” value stood at 0.10 µM; the “magnitude of the calculated AUCs compared with full-length SP-A, 10-mer, 20-mer and several peptidomimetics” value is on record as “much smaller”.

As for `CSCC[C@H](NC(=O)[C@H](CCC(=O)O)NC(=O)[C@@H](NC(=O)[C@H](CSSC[C@H](NC(=O)[C@H](CCC(N)=O)NC(=O)[C@H](CCC(=O)O)NC(=O)[C@H](CCCCN)NC(C)=O)C(=O)N[C@H](C(=O)N[C@@H](CCC(=O)O)C(=O)N[C@@H](CCSC)C(=O)N[C@@H](Cc1ccc(O)cc1)C(=O)N[C@H](C(=O)N[C@@H](CC(=O)O)C(N)=O)[C@@H](C)O)C(C)C)NC(=O)[C@H](CCC(N)=O)NC(=O)[C@H](CCC(=O)O)NC(=O)[C@H](CCCCN)NC(C)=O)C(C)C)C(=O)N[C@@H](Cc1ccc(O)cc1)C(=O)N[C@H](C(=O)N[C@@H](CC(=O)O)C(N)=O)[C@@H](C)O` [Peptidomimetic 868, (Ac-KEQCVEMYTD-NH2)2] (I: Ac-KEQCVEMYTD-NH2 / II: Ac-KEQCVEMYTD-NH2; disulfide I:4-II:4), in the series with eosinophils, the “cytotoxic effect on eosinophils as measured by AUC” value was “most robust cytotoxic effect; also recorded: most comparable response to full-length SP-A”. In addition, in the series on eosinophils (eosinophils, RTCA), the “Average magnitude of largest AUC” value is listed as −9.21 and the “Concentration” value was 1.17 µM. Also, in the series with eosinophils (setting [1]), the EC50 stood at 10900 nM.

Consider “Ac-KEQSVEMYTD-NH2 [Peptidomimetic 883, Ac-KEQSVEMYTD-NH2]”, for which the EC50 with eosinophils worked out at 9410 nM.

For `CCCC[C@H](NC(=O)[C@H](CCC(=O)O)NC(=O)[C@@H](NC(=O)[C@H](CS)NC(=O)[C@H](CCC(N)=O)NC(=O)[C@H](CCC(=O)O)NC(=O)[C@H](CCCCN)NC(=O)CNC(=O)[C@H](CCCNC(=N)N)NC(C)=O)C(C)C)C(=O)N[C@@H](Cc1ccc(O)cc1)C(=O)N[C@H](C(=O)N[C@@H](CC(=O)O)C(N)=O)[C@@H](C)O` [Peptidomimetic 893, Ac-RGKEQCVE-Nle-YTD-NH2] (Ac-RGKEQCVE[Nle]YTD-NH2), in the series on eosinophils, the EC50 stood at 38 nM.

For the compound `CCCC[C@H](NC(=O)[C@H](CCC(=O)O)NC(=O)[C@@H](NC(=O)[C@H](CS)NC(=O)[C@H](CCC(N)=O)NC(=O)[C@H](CCC(=O)O)NC(=O)[C@H](CCCCN)NC(C)=O)C(C)C)C(=O)N[C@@H](Cc1ccc(O)cc1)C(=O)N[C@H](C(=O)N[C@@H](CC(=O)O)C(N)=O)[C@@H](C)O` [Peptidomimetic 882, Ac-KEQCVE-Nle-YTD-NH2] (Ac-KEQCVE[Nle]YTD-NH2), in the series with eosinophils, the EC50 was found to be 3000 nM.

In the series on eosinophils, “H-KEQCVEMYTD-OH [Peptidomimetic 871, H-KEQCVEMYTD-acid]” came in with an EC50 of 2520 nM.

The compound “Ac-GDFRYSDGTPVNYTNWYRGE-NH2 [Peptidomimetic 889]” had an EC50 in the series on eosinophils of 1790 nM.

For the compound “PAGRGKEQCVEMYTDGQWND [20-mer peptide, reference compound]”, the EC50 in the series on eosinophils was found to be 14700 nM. Further, in the series on eosinophils (eosinophils, RTCA), the “average AUC (decrease in cell index)” value is -3.50, the “Average magnitude of largest AUC” value is listed as −3.50, the “Concentration” value worked out at 13.10 µM and the “normalized cell index tracings over time (peptide activity)” value is “decline in peptide activity after 24 hours”. Further, the EC50 in the series on eosinophils (setting [1]) turned out to be 14700 nM. In the series on mouse model of asthma, the airway hyperresponsiveness entry is “reduce”, the airway mucus production result is on record as “reduce” and the eosinophilia result is “reduce”.

The compound `CCCC[C@H](NC(=O)[C@H](CCC(=O)O)NC(=O)[C@@H](NC(=O)[C@H](C)NC(=O)[C@H](CCC(N)=O)NC(=O)[C@H](CCC(=O)O)NC(=O)[C@H](CCCCN)NC(=O)CNC(=O)[C@H](Cc1c[nH]c2ccccc12)NC(C)=O)C(C)C)C(=O)N[C@@H](Cc1ccc(O)cc1)C(=O)N[C@H](C(=O)N[C@@H](CC(=O)O)C(N)=O)[C@@H](C)O` [Peptidomimetic 891, Ac-WGKEQAVE-Nle-YTD-NH2] (Ac-WGKEQAVE[Nle]YTD-NH2) yielded an EC50 in the series on eosinophils of 1030 nM.
